How the values were obtained:
Format in all cases: physicochemical
[1] = Decomposition of pure doxorubicin in PBS (pH 6.9/25° C.) at 37° C.; conditions: normal phosphate buffer
Solubility of the drug = test: Solubility of the drug
[2] = Decomposition of doxorubicin at pH 7.4 versus pH<4
Description: The decomposition rate of doxorubicin at physiological pH (pH 7.4) versus its decomposition rate at pH<4 makes analysis of the system difficult.

- doxorubicin disappears ([1]; in 2 weeks): about 74%
- half-life ([1]; phosphate buffer (PBS), pH 6.9, exponential decomposition during first ten days, read-out: half decay (T1/2) of doxorubicin (converted)): ~108 h
- solubility of doxorubicin in acetone (Solubility of the drug; acetone): high solubility
- solubility of doxorubicin in aqueous solutions (Solubility of the drug; aqueous solutions, orange precipitate seen after day 9): limited solubility
- stability of doxorubicin as a function of pH ([2]; pH<4 (pH ~3.4)): most stable at this pH
Compound: COc1cccc2c1C(=O)c1c(O)c3c(c(O)c1C2=O)C[C@@](O)(C(=O)CO)C[C@@H]3O[C@H]1C[C@H](N)[C@H](O)[C@H](C)O1 [doxorubicin]
- decomposition of doxorubicin at pH 7.4 compared with pH<4 ([2]; known concentration of doxorubicin, FIG. 44): increased decomposition at physiological pH

Source: US20090098044A1, “SOLID PARTICLES FROM CONTROLLED DESTABILISATION OF MICROEMULSIONS” (Australian Nuclear Science and Technology Organisation, priority 2004, published 2009)
